US11279733B2, “Peptide antibiotics” (priority 2017, dated 2022)
Converted amounts (≈) assume the structure as drawn. Like-named read-outs stand apart in the source and are kept apart here. Positions of bridges follow the written chain, without caps; N, C: chain ends. Non-standard residues stand in square brackets, D forms with d. Residues, ends and D or L forms follow the SMILES beside them. *: point of attachment. Decanoyl(3R-OH) = CCCCCCC[C@@H](O)CC(=O)*; 1Nal = N[C@@H](Cc1cccc2ccccc12)C(=O)O; Igl = N[C@H](C(=O)O)C1Cc2ccccc2C1; dDab = NCC[C@@H](N)C(=O)O; X8 = CC(C)CCCC(C)CC(=O)*; dDap = NC[C@@H](N)C(=O)O; Dab = NCC[C@H](N)C(=O)O

How the values were obtained:
A. baumannii ATCC 19606 = conditions: ATCC 19606
Procedure, shortened: (§1)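 Mid-log cultures grown in Mueller Hinton broth at 37° C were tested by 2-fold broth microdilution at 5×10^5 CFU/mL final. Compounds were dissolved in water and tested over a final range of 32 to 0.015 μg/mL.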

A. baumannii GN_093 PmxR = conditions: GN 093 PmxR
Procedure, shortened: as §1

E. coli ATCC 25922 = conditions: ATCC 25922
Procedure, shortened: as §1

K. pneumoniae ATCC 13883 = conditions: ATCC 13883
Procedure, shortened: as §1

[1] = tested on: K. pneumoniae ATCC 700603, MDR; conditions: ATCC 700603
Procedure, shortened: as §1

[2] = tested on: K. pneumoniae ATCC BAA-2146, NDM-1 pos; conditions: ATCC BAA-2146
Procedure, shortened: as §1

[3] = tested on: K. pneumoniae GN_102 PmxR; conditions: GN 102 PmxR
Procedure, shortened: as §1

[4] = tested on: K. pneumoniae GN_106, PmxR; conditions: GN 106, PmxR
Procedure, shortened: as §1

P. aeruginosa ATCC 27853 = conditions: ATCC 27853
Procedure, shortened: as §1

[5] = tested on: P. aeruginosa GN_043, PmxR
Procedure, shortened: as §1

[6] = tested on: P. aeruginosa GN_105, PmxR; conditions: GN 105, PmxR
Procedure, shortened: as §1

[7] = tested on: S. aureus ATCC 25923, MSSA; conditions: ATCC 25923
Procedure, shortened: as §1

in vitro [8] = conditions: human
Procedure, shortened: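 HK2 cells were seeded at 2000 per well in DMEM/F12 with 10% FBS and left to attach for 24 h at 37 °C, 5% CO2. They were then exposed for 24 h to 3-fold peptide dilutions starting from 600 μM solutions in quadruplicate. LDH release was read at 450 nm, and CC50 was fitted from dose-response curves.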

Neisseria gonorrhoeae = assay: MIC determination, Neisseria gonorrhoeae; type: cell-based; conditions: for MIC N. gonorrhoeae FA19 ATCC BAA-1838: strain FA19 ATCC BAA-1838
Method: Bacteria were either obtained from American Type Culture Collection (ATCC; Manassas, Va., USA) or independent academic clinical isolate collections, as listed in Table 18 below. Bacteria were cultured in Nutrient broth (NB; Bacto Laboratories, catalogue No. 234000) or Mueller Hinton broth (MHB; Bacto Laboratories, catalogue No. 211443) at 37° C. overnight with shaking (˜180 RPM). A sample of each culture was then diluted 50-fold in fresh MHB and incubated at 37° C. for 2-3 h with shaking (˜180 RPM). Compound stock solutions were prepared as 0.64 mg/mL or 2.56 mg/mL in water. The compounds, at twice the final desired concentration, were serially diluted 2-fold across the wells of 96-well plates (Polystyrene, Corning, catalogue No. 3370). Mid-log phase bacterial cultures (after 2-3 h incubation) were diluted to a final concentration of 1×10^6 colony forming units (CFU)/mL, and 50 μL was added to each well giving a final cell density of 5×10^5 and a compound concentration range of 32 μg/mL to 0.015 μg/mL (128-0.06 μg/mL against P. aeruginosa PA9704).

in vitro [9] = conditions: human; remark: listed apart in the source
Procedure, shortened: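 4000 cells/well, 24 h attach (37 °C, 5% CO2); compound 24 h; 5 μM resazurin 2 h, 37 °C; fluorescence ex/em 560/590. CC50 by curve fit.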

SMILES | MIC A. baumannii ATCC 19606 (A. baumannii ATCC 19606) [µg/mL] | MIC A. baumannii GN_093 PmxR (A. baumannii GN_093 PmxR) [µg/mL] | MIC E. coli ATCC 25922 (E. coli ATCC 25922) [µg/mL] | MIC K. pneumoniae ATCC 13883 (K. pneumoniae ATCC 13883) [µg/mL] | MIC K. pneumoniae ATCC 700603, MDR [1] [µg/mL] | MIC K. pneumoniae ATCC BAA-2146, NDM-1 pos [2] [µg/mL] | MIC K. pneumoniae GN_102 PmxR [3] [µg/mL] | MIC K. pneumoniae GN_106, PmxR [4] [µg/mL] | MIC P. aeruginosa ATCC 27853 (P. aeruginosa ATCC 27853) [µg/mL] | MIC P. aeruginosa GN_043, PmxR ([5]; P. aeruginosa GN_043, PmxR) [µg/mL] | MIC P. aeruginosa GN_105, PmxR [6] [µg/mL] | MIC S. aureus ATCC 25923, MSSA [7] [µg/mL] | CC50 at 24 h (in vitro [8]) [µM] | MIC P. aeruginosa GN_043, PmxR ([5]; polymyxin-resistant) [µg/mL] | MIC N. gonorrhoeae FA19 ATCC BAA-1838 (Neisseria gonorrhoeae) [µg/mL] | CC50 at 24 h (in vitro [9]) [µM] | MIC N. gonorrhoeae F89 (Neisseria gonorrhoeae; strain F89) [µg/mL] | MIC N. gonorrhoeae FA1090 A25 ATCC 700825 (Neisseria gonorrhoeae; strain FA1090 A25 ATCC 700825) [µg/mL] | MIC N. gonorrhoeae H041 (Neisseria gonorrhoeae; strain H041) [µg/mL]
CC(C)CCCC(C)CC(=O)N[C@H](CCN)C(=O)N[C@H]1CCNC(=O)[C@H](CC(C)C)NC(=O)[C@H](CCN)NC(=O)[C@H](CCN)NC(=O)[C@H](Cc2ccccc2)NC(=O)[C@@H](CC(C)C)NC(=O)[C@H](CCN)NC1=O (stereo partly drawn) [compound 6515, 3,7-dimethyloctanoic acid-D-Dab-cyc[L-Dab-L-Dab-D-Leu-L-Phe-L-Dab-L-Dab-L-Leu]] (X8-[dDab][Dab][Dab][dL]F[Dab][Dab]L; lactam 2-C) | >32 | 16 (≈ 15.6 µM) | 2 (≈ 1.94 µM) | 8 (≈ 7.78 µM) | 4 (≈ 3.89 µM) | 8 (≈ 7.78 µM) | 16 (≈ 15.6 µM) | 32 (≈ 31.1 µM) | 2 (≈ 1.94 µM) | 2 (≈ 1.94 µM) | 2 (≈ 1.94 µM) | 32 (≈ 31.1 µM) | 80 |  |  |  |  |  | 
CCCCCCC[C@@H](O)CC(=O)N[C@H](CCN)C(=O)N[C@H]1CCNC(=O)[C@H]([C@@H](C)O)NC(=O)[C@H](CCN)NC(=O)[C@H](CCNC(=O)[C@@H](N)CCCNC(=N)N)NC(=O)[C@H](CC(C)C)NC(=O)[C@@H](Cc2ccccc2)NC(=O)[C@H](CCN)NC1=O [compound 6656, 3(R)OH-nC9CO-D-Dab-cyc[L-Dab-L-Dab-D-Phe-L-Leu-L-Dab(L-Arg)-L-Dab-L-Thr]] ({Decanoyl(3R-OH)}-[dDab][Dab][Dab][dF]L[Dab](Arg)[Dab]T; lactam 2-C) | 16 (≈ 13.5 µM) | >32 | 2 (≈ 1.68 µM) | >32 | 4 (≈ 3.37 µM) | >32 | >32 | >32 | 2 (≈ 1.68 µM) | 8 (≈ 6.73 µM) | 16 (≈ 13.5 µM) | >32 | > 300 |  |  |  |  |  | 
CCCCCCC[C@@H](O)CC(=O)N[C@H](CCN)C(=O)N[C@H]1CCNC(=O)[C@H]([C@@H](C)O)NC(=O)[C@H](CCN)NC(=O)[C@H](CCN)NC(=O)[C@H](CC(C)C)NC(=O)[C@@H](Cc2ccccc2)NC(=O)[C@H](CCNC(=O)[C@@H](N)CCCNC(=N)N)NC1=O [compound 6657, 3(R)OH-nC9CO-D-Dab-cyc[L-Dab-L-Dab(L-Arg)-D-Phe-L-Leu-L-Dab-L-Dab-L-Thr]] ({Decanoyl(3R-OH)}-[dDab][Dab][Dab](Arg)[dF]L[Dab][Dab]T; lactam 2-C) | >32 | >32 | >32 | >32 | >32 | >32 | >32 | >32 | 16 (≈ 13.5 µM) | >32 | >32 | >32 | > 300 |  |  |  |  |  | 
CCCCCCC[C@@H](O)CC(=O)N[C@H](CCN)C(=O)N[C@H]1CCNC(=O)[C@H](Cc2c[nH]c3ccccc23)NC(=O)[C@H](CCN)NC(=O)[C@H](CCN)NC(=O)[C@H](C2Cc3ccccc3C2)NC(=O)[C@@H](Cc2ccccc2)NC(=O)[C@H](CCN)NC1=O [compound 8103, 3(R)OH-nC9CO-D-Dab-cyc[L-Dab-L-Dab-L-Dab-D-Phe-L-indanylgly-L-Dab-L-Dab-L-Trp]] ({Decanoyl(3R-OH)}-[dDab][Dab][Dab][dF][Igl][Dab][Dab]W; lactam 2-C) | 4 (≈ 3.4 µM) | 4 (≈ 3.4 µM) | 2 (≈ 1.7 µM) | 4 (≈ 3.4 µM) | 2 (≈ 1.7 µM) | 4 (≈ 3.4 µM) | 4 (≈ 3.4 µM) | 4 (≈ 3.4 µM) | 4 (≈ 3.4 µM) |  | 2 (≈ 1.7 µM) | 2 (≈ 1.7 µM) |  | 2 (≈ 1.7 µM) | 0.2 (≈ 0.17 µM) |  |  |  | 
CCCCCCC[C@@H](O)CC(=O)N[C@H](CN)C(=O)N[C@H]1CCNC(=O)[C@H](Cc2c[nH]c3ccccc23)NC(=O)[C@H](CCN)NC(=O)[C@H](CCN)NC(=O)[C@H](CC(C)C)NC(=O)[C@@H](Cc2ccccc2)NC(=O)[C@H](CCN)NC1=O [compound 8886, 3(R)OH-nC9CO-D-Dap-cyc[L-Dab-L-Dab-D-Phe-L-Leu-L-Dab-L-Dab-L-Trp]] ({Decanoyl(3R-OH)}-[dDap][Dab][Dab][dF]L[Dab][Dab]W; lactam 2-C) | 8 (≈ 7.25 µM) | 8 (≈ 7.25 µM) | 2 (≈ 1.81 µM) | 4 (≈ 3.63 µM) | 4 (≈ 3.63 µM) | 4 (≈ 3.63 µM) | 4 (≈ 3.63 µM) | 4 (≈ 3.63 µM) | 2 (≈ 1.81 µM) |  | 1 (≈ 0.906 µM) | 4 (≈ 3.63 µM) |  | 2 (≈ 1.81 µM) | 0.39 (≈ 0.353 µM) | 95 | 1.04 (≈ 0.943 µM) | 0.91 (≈ 0.825 µM) | 1.04 (≈ 0.943 µM)
CCCCCCC[C@@H](O)CC(=O)N[C@H](CCN)C(=O)N[C@H]1CCNC(=O)[C@H](Cc2cccc3ccccc23)NC(=O)[C@H](CCN)NC(=O)[C@H](CCN)NC(=O)[C@H](CC(C)C)NC(=O)[C@@H](Cc2ccccc2)NC(=O)[C@H](CCN)NC1=O [compound 8909, 3(R)OH-nC9CO-D-Dab-cyc[L-Dab-L-Dab-D-Phe-L-Leu-L-Dab-L-Dab-L-Ala(1Naphthyl)]] ({Decanoyl(3R-OH)}-[dDab][Dab][Dab][dF]L[Dab][Dab][1Nal]; lactam 2-C) | 4 (≈ 3.54 µM) | 4 (≈ 3.54 µM) | 2 (≈ 1.77 µM) | 2 (≈ 1.77 µM) | 2 (≈ 1.77 µM) | 4 (≈ 3.54 µM) | 4 (≈ 3.54 µM) | 4 (≈ 3.54 µM) | 2 (≈ 1.77 µM) |  | 2 (≈ 1.77 µM) | 2 (≈ 1.77 µM) |  | 4 (≈ 3.54 µM) | 0.78 (≈ 0.691 µM) | 26 |  |  | 
CCCCCCC[C@@H](O)CC(=O)N[C@H](CCN)C(=O)N[C@H]1CCNC(=O)[C@H](C2Cc3ccccc3C2)NC(=O)[C@H](CCN)NC(=O)[C@H](CCN)NC(=O)[C@H](CC(C)C)NC(=O)[C@@H](Cc2ccccc2)NC(=O)[C@H](CCN)NC1=O [compound 8912, 3(R)OH-nC9CO-D-Dab-cyc[L-Dab-L-Dab-D-Phe-L-Leu-L-Dab-L-Dab-L-indanylgly]] ({Decanoyl(3R-OH)}-[dDab][Dab][Dab][dF]L[Dab][Dab][Igl]; lactam 2-C) | 4 (≈ 3.62 µM) | 4 (≈ 3.62 µM) | 2 (≈ 1.81 µM) | 2 (≈ 1.81 µM) | 4 (≈ 3.62 µM) | 4 (≈ 3.62 µM) | 2 (≈ 1.81 µM) | 2 (≈ 1.81 µM) | 2 (≈ 1.81 µM) |  | 2 (≈ 1.81 µM) | 2 (≈ 1.81 µM) |  | 2 (≈ 1.81 µM) | 0.78 (≈ 0.706 µM) | 28 |  |  | 
